In the NIST ThermoML archive (doi:10.1021/je060271a):

Conditions: 283.14 K, Liquid, Vibrating tube method

CCCCCCC(=O)OCC(COC(=O)CCCCCC)(COC(=O)CCCCCC)COC(=O)CCCCCC [pentaerythritol tetraheptanoate]
Conditions	mass density [kg/m3]
5880.4 kPa	989.3
5889.4 kPa	989.2
5899.2 kPa	989.3
5907.7 kPa	989.3
5916.4 kPa	989.3
5925.4 kPa	989.4
5935.4 kPa	989.3
5944.2 kPa	989.2
5952.8 kPa	989.3
5962.7 kPa	989.3
5971.7 kPa	989.2
5980.7 kPa	989.3
5989.5 kPa	989.3
6000.4 kPa	989.2
6009 kPa	989.3
6017.5 kPa	989.3
6028.4 kPa	989.4
6037.6 kPa	989.3
6046.5 kPa	989.3
6055.5 kPa	989.5
6066.2 kPa	989.3
6075.2 kPa	989.4
6084.6 kPa	989.5
6094.9 kPa	989.3
6104.1 kPa	989.3
6113.4 kPa	989.5
6124.2 kPa	989.4
6133.5 kPa	989.4
6142.8 kPa	989.4
6153.4 kPa	989.4
6162.9 kPa	989.4
6172.4 kPa	989.4
6182.1 kPa	989.4
6193.1 kPa	989.4
6202.5 kPa	989.4
6212.1 kPa	989.4
6223.2 kPa	989.5
6232.9 kPa	989.5
6242.4 kPa	989.5
6254.1 kPa	989.4
6263.6 kPa	989.5
6273.3 kPa	989.5
6282.8 kPa	989.6
6294.6 kPa	989.5
6304.3 kPa	989.6
6314.1 kPa	989.6
6325.9 kPa	989.5
6335.9 kPa	989.5
6345.6 kPa	989.6
6355.6 kPa	989.5
6367.7 kPa	989.5
6377.5 kPa	989.6
6387.7 kPa	989.6
6397.9 kPa	989.6
6410 kPa	989.6
6420.4 kPa	989.6
6431 kPa	989.5
6440.8 kPa	989.5
6452.9 kPa	989.6
6463.6 kPa	989.5
6473.8 kPa	989.6
6484 kPa	989.6
6494.6 kPa	989.6
6506.6 kPa	989.6
6517 kPa	989.6
6527.7 kPa	989.6
6540.3 kPa	989.7
6550.9 kPa	989.5
6564.2 kPa	989.7
6573.4 kPa	989.7
6583.9 kPa	989.7
6596.7 kPa	989.7
6607.2 kPa	989.6
6618.3 kPa	989.7
6631.8 kPa	989.7
6642.5 kPa	989.7
6653 kPa	989.7
6664.1 kPa	989.7
6677.7 kPa	989.8
6688.4 kPa	989.7
6699.5 kPa	989.7
6712.6 kPa	989.7
6723.8 kPa	989.8
6735.3 kPa	989.8
6746.7 kPa	989.9
6759.9 kPa	989.7
6771.5 kPa	989.7
6782.8 kPa	989.8
6794.2 kPa	989.8
6807.8 kPa	989.8
6818.9 kPa	989.8
6830.8 kPa	989.8
6844.4 kPa	989.8
6856.3 kPa	989.7
6868.3 kPa	989.8
6879.7 kPa	989.9
6894 kPa	989.9
6905.9 kPa	989.9
6917.3 kPa	989.9
6929.4 kPa	989.9
6943.4 kPa	989.9
6955.3 kPa	989.9
6967.2 kPa	989.9
6981.6 kPa	989.8
6993.5 kPa	989.9
7005.9 kPa	989.9
7020.3 kPa	989.8
7032.3 kPa	990
7045.1 kPa	990.1
7057.7 kPa	989.8
7072.1 kPa	989.9
